This is an account of results in US8367710B2, “Bicyclo-substituted pyrazolon azo derivatives, preparation process and pharmaceutical use thereof” (Jiangsu Hengrui Medicine Co. Ltd., priority 2008, dated 2013).

The target of one data set is T1, human TPO receptor (Homo sapiens, UniProt P40238).
T1 sequence (P40238 26-635): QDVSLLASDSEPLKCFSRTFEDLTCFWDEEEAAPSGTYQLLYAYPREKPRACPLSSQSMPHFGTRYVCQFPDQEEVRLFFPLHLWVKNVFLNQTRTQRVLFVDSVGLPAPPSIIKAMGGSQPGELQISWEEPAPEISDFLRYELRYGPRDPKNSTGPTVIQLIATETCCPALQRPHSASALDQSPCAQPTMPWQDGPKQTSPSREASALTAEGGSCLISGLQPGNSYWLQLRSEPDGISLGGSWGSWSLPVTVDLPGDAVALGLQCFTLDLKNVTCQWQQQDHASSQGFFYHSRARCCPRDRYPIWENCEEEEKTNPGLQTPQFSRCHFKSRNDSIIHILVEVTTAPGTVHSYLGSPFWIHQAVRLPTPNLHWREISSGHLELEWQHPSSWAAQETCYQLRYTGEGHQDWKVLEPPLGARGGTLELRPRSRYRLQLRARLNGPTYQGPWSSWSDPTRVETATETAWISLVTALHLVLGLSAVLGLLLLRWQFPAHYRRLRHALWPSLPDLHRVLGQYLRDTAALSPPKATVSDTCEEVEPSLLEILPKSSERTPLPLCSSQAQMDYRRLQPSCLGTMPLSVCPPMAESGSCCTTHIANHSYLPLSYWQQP
Put plainly: pro-proliferation effect on BAF3-TPOR cell (CCK-8). The format is cell-based, mouse. The following applies: BAF3-TPOR cells, proliferation relative to rhTPO positive control. As to the method: The sequence of primers which contains multi-sites mutation was designed as follows: […]
The E. coli DH5α competent cell was transformed with mutated plasmid, and positive colonies were picked up through ampicillin selection.
(2) BAF3-TPOR stable transfected cell line: the following method was used to construct the BaF3 cell which stably over-expressed functional human TPO receptor. […] The stable transfected cells BAF3-TPOR were selected with G418 (Gibco, US), then incubated with RPMI1640 medium plus 10% FBS (Gibco, US), […] G418, 5 ng/mL, rmIL-3 (Chemicon, US).
(1) Washing cells by centrifugation: a suitable amount of cell suspension was centrifuged at 1000 rpm for 5 minutes, and the supernatant was discarded. 10 mL of cell culture media without containing IL-3 was added. Then the resulting cell suspension was centrifuged at 1000 rpm for 5 minutes, and the supernatant was discarded.
(2) 1 mL of cell culture media without containing IL-3 was added to beat upon them to equality, and the number of a suitable amount of cell suspension was counted after dilution.
(3) According to the result of the cell counting, a cell suspension in a concentration of 100,000 cell/mL was prepared.
(4) 100 μL of cell suspension was transferred to each well of 96-well culture plate, and there were 3 parallel wells, that is, there were a blank control group (B), a negative control group (N), a positive control group of TPO (P) and a test compound group (S).
(5) The test compound was dissolved in DMSO to prepare a 10 mM stock solution, and then the solution was diluted with RPMI 1640 medium into a series of test samples at different concentration: 30 μM, 10 μM, 3 μM, 1 μM, 0.3 μM, 0.1 μM, 0.03 μM, 0.01 μM, 0.003 μM, 0.001 μM.
(6) 10 μL of test compound solution was transferred to each well respectively; 1 μL of rhTPO (10 μg/mL) was added to positive control well.
(7) The plates were incubated in an incubator at 5% CO2 and 37° C. for 24 hours.
(9) OD value was detected at 450 nm by VICTOR3 (Perkin Elmer 1420-120) plate reader.
(1) The proliferation rate was calculated as follows: Rate=[(S−B)/(P−B)]*100%
S: OD value of wells which contains test compound.
B: OD value of blank control wells
P: OD value of positive control wells
(2) The EC50 value was calculated by Origin 7.0 software.

Data set [1] can be described thus: Pharmacokinetics assay in rats after intragastric administration. The following applies: both sexes, Sprague-Dawley, rat, plasma, po, SD rats, 5 mg/Kg; for Vd/F: read-out: Apparent Distribution Volume Vz/F; for CL/F: read-out: Clearance CL/F (converted); for AUC: read-out: Curve Area AUC; for half-life: read-out: Half-Life t½ (converted); for MRT: read-out: Mean Residence Time MRT; for Cmax: read-out: Plasma Conc. Cmax. The format is in vivo. Here is the method: Test Example 1: Pharmacokinetics assay of the compounds of the present disclosure
The pharmacokinetics of the compounds of the present disclosure was studied and evaluated in rats.
The test compound was diluted with 1% sodium carboxymethyl cellulose to 0.5 mg/mL (calculated as the free acid form) of suspension before use.
24 healthy adult SD rats, male and female in half, were divided into […]. After an overnight fast, the rats were administered intragastrically at a dose of 5.0 mg/kg (calculated as the free acid form), at a volume of 10 mL/kg.
24 healthy adult SD rats, male and female in half, were administered intragastrically at a dose of 5.0 mg/kg after an overnight fast. Blood samples (0.2 mL) were taken from eye socket at pre administration and at 0.5, 1.0, 2.0, 3.0, 4.0, 5.0, 6.0, 8.0, 11.0, 14.0, 24.0, 36.0 and 48.0 hours post administration, which were stored in heparinized tubes and centrifuged for 10 minutes at 3,500 rpm. The plasma samples were stored at −20° C. until analysis.
50 μL of rat plasma, obtained at various time points after administration, 20 μL of internal standard solution and 20 μL of a solvent mixture of methanol and water (80:20, v/v) were mixed well, and then 150 μL of methanol was added to result in protein precipitation. Then the mixture was mixed for 1 minute using a vortexer and centrifuged for 10 minutes at 13,000 rpm. 20 μL of the supernatant was analyzed by LC/MS/MS.
50 μL of blank plasma was spiked with a series of standard solutions to produce final concentrations of 1.0, 5.0, 25.0, 50.0, 100.0, 250.0, 500.0 ng/mL, followed by addition of 20 μL of internal standard solution, which was treated according to plasma sample pretreatment protocol. A typical calibration curve equation was obtained with plasma concentration as the abscissa and the chromatographic peak area ratio of sample to internal standard as the ordinate, using weighted least squares method (w=1/x^2) for linear regression.
The compartmental model of pharmacokinetics was fitted for the test compounds and the major pharmacokinetic parameters were calculated in which Cmax and tmax were the actually measured values.

`CC1=NN(c2ccc3c(c2)CCC3)C(=O)/C1=N\Nc1cc(C)cc(-c2ccc(C(=O)O)o2)c1O` [Example 46, 5-{2-Hydroxy-3-[N′-(1-indan-5-yl-3-methyl-5-oxo-1,5-dihydro-pyrazol-4-ylidene)-hydrazino]-5-methyl-phenyl}-furan-2-carboxylic acid] showed an EC50 on human TPO receptor of 56 nM.

The molecule `CC1=NN(c2ccc3c(c2)CC3)C(=O)/C1=N\Nc1cccc(-c2ccc(C(=O)O)o2)c1O` [Example 22, 5-{3-[N′-(1-Bicyclo[4.2.0]octa-1(6),2,4-trien-3-yl-3-methyl-5-oxo-1,5-dihydro-pyrazol-4-ylidene)-hydrazino]-2-hydroxy-phenyl}-furan-2-carboxylic acid] gave an EC50 on human TPO receptor of 15 nM.

Take `CC1=NN(c2ccc3c(c2)C(C)CC3)C(=O)/C1=N\Nc1cccc(-c2ccc(C(=O)O)o2)c1O` (stereo not drawn) [Example 44, 5-(2-Hydroxy-3-{N′-[3-methyl-1-(3-methyl-indan-5-yl)-5-oxo-1,5-dihydro-pyrazol-4-ylidene]-hydrazino}-phenyl)-furan-2-carboxylic acid]: the EC50 on human TPO receptor turned out to be 50 nM.

As for `CC1=NN(c2ccc3c(c2)CCC3)C(=O)/C1=N\Nc1cccc(-c2cccc(C(=O)O)c2)c1O` [Example 1, 2′-Hydroxy-3′-[N′-(1-indan-5-yl-3-methyl-5-oxo-1,5-dihydro-pyrazol-4-ylidene)-hydrazino]-biphenyl-3-carboxylic acid], in data set [1], the Vd/F came out at 0.35 ± 0.18 L/kg, the CL/F was 0.817 mL/min/kg, the AUC stood at 132000 ± 47000 ng·h/mL and the half-life was 323 ± 56.4 min. In data set [1], the MRT amounted to 4.96 ± 1.16 h and the Cmax is 29000 ± 11400 ng/mL.

As for `CC1=NN(c2ccc3c(c2)CCCC3)C(=O)/C1=N\Nc1cccc(-c2ccc(C(=O)O)o2)c1O` [Example 15, 5-(2-Hydroxy-3-{N′-[3-methyl-5-oxo-1-(5,6,7,8-tetrahydro-naphthalen-2-yl)-1,5-dihydro-pyrazol-4-ylidene]-hydrazino}-phenyl)-furan-2-carboxylic acid], in data set [1], the Vd/F was 1.36 ± 0.7 L/kg, the CL/F was 4.67 mL/min/kg, the AUC was 23800 ± 17300 ng·h/mL and the half-life was 208 ± 47.4 min. Moreover, in data set [1], the MRT is 4.09 ± 0.99 h and the Cmax stood at 6630 ± 3780 ng/mL.

Turning to `CC1=NN(c2ccc3c(c2)CCO3)C(=O)/C1=N\Nc1cccc(-c2cccc(C(=O)O)c2)c1O` [Example 7, 3′-{N′-[1-(2,3-dihydro-benzofuran-5-yl)-3-methyl-5-oxo-1,5-dihydro-pyrazol-4-ylidene]-hydrazino}-2′-hydroxy-biphenyl-3-carboxylic acid], a half-maximal response on human TPO receptor (EC50) required 265 nM.

For `CC1=NN(c2ccc3c(c2)CC3)C(=O)/C1=N\Nc1cccc(-c2cccc(C(=O)O)c2)c1O` [Example 5, 3′-[N′-(1-Bicyclo[4.2.0]octa-1(6),2,4-trien-3-yl-3-methyl-5-oxo-1,5-dihydro-pyrazol-4-ylidene)-hydrazino]-2′-hydroxy-biphenyl-3-carboxylic acid], it took 354 nM to reach a half-maximal effect at human TPO receptor (EC50).

`CC1=NN(c2ccc3c(c2)CCC3)C(=O)/C1=N\Nc1cccc(-c2coc(C(=O)O)c2)c1O` [Example 31, 4-{2-Hydroxy-3-[N′-(1-indan-5-yl-3-methyl-5-oxo-1,5-dihydro-pyrazol-4-ylidene)-hydrazino]-phenyl}-furan-2-carboxylic acid]: the EC50 at human TPO receptor is 27 nM.

`CC1=NN(c2ccc3c(c2)CCO3)C(=O)/C1=N\Nc1cc(C)cc(-c2cccc(C(=O)O)c2)c1O` [Example 13, 3′-{N′-[1-(2,3-Dihydro-benzofuran-5-yl)-3-methyl-5-oxo-1,5-dihydro-pyrazol-4-ylidene]-hydrazino}-2′-hydroxy-5′-methyl-biphenyl-3-carboxylic acid]: the EC50 on human TPO receptor worked out at 141 nM.

With `CC1=NN(c2ccc3c(c2)CCCC3)C(=O)/C1=N\Nc1cccc(-c2cccc(C(=O)O)c2)c1O` [Example 3, 2′-Hydroxy-3′-{N′-[3-methyl-5-oxo-1-(5,6,7,8-tetrahydro-naphthalen-2-yl)-1,5-dihydro-pyrazol-4-ylidene]-hydrazino}-biphenyl-3-carboxylic acid], a half-maximal response on human TPO receptor (EC50) required 310 nM.

In the case of `CC1=NN(c2ccc3c(c2)CCCC3)C(=O)/C1=N\Nc1cc(C)cc(-c2cccc(C(=O)O)c2)c1O` [Example 11, 2′-Hydroxy-5′-methyl-3′-{N′-[3-methyl-5-oxo-1-(5,6,7,8-tetrahydro-naphthalen-2-yl)-1,5-dihydro-pyrazol-4-ylidene]-hydrazino}-biphenyl-3-carboxylic acid], at human TPO receptor, the EC50 was found to be 257 nM.

At human TPO receptor, `CC1=NN(c2ccc3c(c2)CC(C)(C)C3)C(=O)/C1=N\Nc1cccc(-c2ccc(C(=O)O)o2)c1O` [Example 45, 5-(3-{N′-[1-(2,2-Dimethyl-indan-5-yl)-3-methyl-5-oxo-1,5-dihydro-pyrazol-4-ylidene]-hydrazino}-2-hydroxy-phenyl)-furan-2-carboxylic acid] returned an EC50 of 130 nM.

In the case of `CC1=NN(c2ccc3c(c2)CC3)C(=O)/C1=N\Nc1cccc(-c2ccc(C(=O)O)s2)c1O` [Example 37, 5-{3-[N′-(1-Bicyclo[4.2.0]octa-1(6),2,4-trien-3-yl-3-methyl-5-oxo-1,5-dihydro-pyrazol-4-ylidene)-hydrazino]-2-hydroxy-phenyl}-thiophene-2-carboxylic acid], the EC50 at human TPO receptor was 90 nM.

Take `CC1=NN(c2ccc3c(c2)CCCC3)C(=O)/C1=N\Nc1cc(C)cc(-c2ccc(C(=O)O)o2)c1O` [Example 50, 5-(2-Hydroxy-5-methyl-3-{N′-[3-methyl-5-oxo-1-(5,6,7,8-tetrahydro-naphthalen-2-yl)-1,5-dihydro-pyrazol-4-ylidene]-hydrazino}-phenyl)-furan-2-carboxylic acid]: at human TPO receptor, the EC50 was found to be 126 nM.
